{"source": "patent US20100143319A1", "about": "“KIWIFRUIT COMPOSITIONS” (priority 2007, published 2010)", "key": {"mouse Constipation Model": {"test_system": "mouse Constipation Model", "assay": "First animal trial: constipation experiment (Constipation Model, diphenoxylate 0.50 g/l)", "format": "in vivo, Kunmin male mice", "details": "mean ± SD, n=10", "text": "(§1) Experimental animals: 100 Kunmin male mice (class two) were purchased from the animal center in the Academy of Military Medical Sciences of the Chinese PLA, with a weight of 16 to 18 g. • Group 1: 50 mice were randomly divided into 5 experimental groups each of 10 mice (negative control group, model control group and three dosage groups), to test small intestine motility. • Group 2: 50 mice were randomly divided into 5 experimental groups each of 10 mice (negative control group, model control group and three dosage groups), to measure the following parameters: time of first melena defecation, the number of faeces pellets, the weight of faeces, and to observe the shape of the faeces. Number of qualitative qualification is SCXK M 2002-001.\nFor this experiment, the dosage was set at 10 times that of the recommended dosage, namely 0.29 g/kgBW per day (4 capsules). The experiment was designed with a low dosage group (0.145 g/kgBW) (2 capsules) and a high dosage group (0.87 g/kgBW) (12 capsules). The kiwifruit extract was dissolved by gentle agitation into sterile distilled water. For both the negative control group (0 g/kgBW) and the model control group sterile distilled water was used as the treatment. Oral intubation was used to administer the dose to the mice, at a measured quantity of 20 ml/kgBW.\nParameters measured in the animal trial were time of defecation, the number of faeces pellets, the weight of the faeces, and visual observation of the shape of the faeces\nThe different doses of kiwifruit composition were orally administered to the mice, and the shape of the faeces during the eight day feeding trial was observed. […] The mice in the Peristaltic Inhibition Model control group and the three dose groups were orally administered 0.50 g/l of diphenoxylate in the calculated volume of 20 ml/kg BW, whilst the negative group were given an equivalent volume of water. […] The time of the first melena defecation was recorded, along with the number of faecal pellets within 5 hours and the weight of the faeces, as well as the shape of the faeces."}, "[1]": {"test_system": "mouse small intestine motility", "assay": "First animal trial: small intestine motility experiment (Peristaltic Inhibition Model, diphenoxylate 0.25 g/l)", "format": "in vivo, Kunmin male mice", "details": "model control: 0.25 g/l diphenoxylate oral, 20 ml/kg BW; mean ± SD, n=10; P<0.01 vs negative control", "text": "as §1, with “Number of qualitative qualification is SCXK M 2002-001.” left out\nFor this experiment, the dosage was set at 10 times that of the recommended dosage, namely 0.29 g/kgBW per day (4 capsules). […] Oral intubation was used to administer the dose to the mice, at a measured quantity of 20 ml/kgBW.\n8 days after oral administration of the different treatments, each group was fasted for 16 hours (with free access to drinking water). Mice in the Peristaltic Inhibition Model control group and the three dose groups were orally administered 0.25 g/l, diphenoxylate at a measured quantity of 20 ml/kg BW. […] The 0 g/kg BW group (negative control group and model control group) were orally administered blank inks with a measured quantity of 20 ml/kg BW. […]"}, "[2]": {"details": "model control: 0.50 g/l diphenoxylate oral, 20 ml/kg BW, P 0.000 vs negative control"}}, "data": [{"smiles": "CCOC(=O)C1(c2ccccc2)CCN(CCC(C#N)(c2ccccc2)c2ccccc2)CC1", "note": "[diphenoxylate, Diphenoxylate]", "values": [{"measurement": "Number of faeces pellets defecated within 5 hours (grain)", "setting": "mouse Constipation Model; [2]", "value": "25 ± 16", "unit": "grain"}, {"measurement": "Weight of faeces defecated within 5 hours", "setting": "mouse Constipation Model; [2]", "value": "0.47 ± 0.26", "unit": "grain"}, {"measurement": "Time of first melena defecation", "setting": "mouse Constipation Model; model control: diphenoxylate oral, 20 ml/kg BW (0.50 g/l, 0.25 g/L elsewhere in the source), P<0.01 vs negative control", "value": "231.7 ± 81.7", "unit": "min"}, {"measurement": "Ink Progression (%)", "setting": "[1]", "value": "33.8 ± 7.0", "unit": "%"}]}]}
